Here are results for 16 compounds from ChEMBL document CHEMBL4351023, “Novel N-benzylpiperidine carboxamide derivatives as potential cholinesterase inhibitors for the treatment of Alzheimer's disease” (Eur J Med Chem, 2019).

The structures appear in SMILES notation.

Data set [1] deals with Acetylcholinesterase (Electrophorus electricus, UniProt O42275). The data set can be described thus: Inhibition of Electrophorus electricus AChE using acetylthiocholine iodide as substrate by Ellman's method. Background: In Ellman's method for cholinesterases, released thiocholine reacts with DTNB.
Data set [2] addresses Cholinesterase (Equus caballus, UniProt P81908). Description: Inhibition of BuChE in equine serum using Butyrylthiocholine iodide as substrate by Ellman's method. The class given is cell-free.
The subject of data set [3] is SH-SY5Y. The data set can be described thus: cells. The class given is ADME, cell-based. Particulars: Homo sapiens, 72 h.
Data set [4] is described as follows: Solubility of compound in <1 % DMSO. The format is physicochemical.
Data set [5] can be described thus: Solubility of compound in water at 10 mM. The format is physicochemical. The note with it: buffer, 10000 µM.

Cholinesterase, sequence (P81908 whole entry): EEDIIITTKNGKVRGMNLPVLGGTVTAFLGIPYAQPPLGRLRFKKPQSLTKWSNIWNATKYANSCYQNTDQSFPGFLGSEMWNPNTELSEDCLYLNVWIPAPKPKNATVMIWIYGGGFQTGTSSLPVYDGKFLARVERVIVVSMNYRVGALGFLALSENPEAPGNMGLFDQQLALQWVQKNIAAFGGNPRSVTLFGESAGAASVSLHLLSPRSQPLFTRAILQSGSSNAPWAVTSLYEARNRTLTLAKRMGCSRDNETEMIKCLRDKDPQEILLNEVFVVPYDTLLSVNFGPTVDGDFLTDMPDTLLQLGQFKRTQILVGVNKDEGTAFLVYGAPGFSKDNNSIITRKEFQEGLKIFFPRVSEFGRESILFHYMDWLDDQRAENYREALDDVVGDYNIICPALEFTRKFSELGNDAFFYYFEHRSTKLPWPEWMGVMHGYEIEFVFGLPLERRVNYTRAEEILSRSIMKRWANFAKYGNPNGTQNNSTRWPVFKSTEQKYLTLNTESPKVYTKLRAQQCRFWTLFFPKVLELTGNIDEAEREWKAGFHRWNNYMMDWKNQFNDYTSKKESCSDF
Acetylcholinesterase, sequence (O42275 whole entry): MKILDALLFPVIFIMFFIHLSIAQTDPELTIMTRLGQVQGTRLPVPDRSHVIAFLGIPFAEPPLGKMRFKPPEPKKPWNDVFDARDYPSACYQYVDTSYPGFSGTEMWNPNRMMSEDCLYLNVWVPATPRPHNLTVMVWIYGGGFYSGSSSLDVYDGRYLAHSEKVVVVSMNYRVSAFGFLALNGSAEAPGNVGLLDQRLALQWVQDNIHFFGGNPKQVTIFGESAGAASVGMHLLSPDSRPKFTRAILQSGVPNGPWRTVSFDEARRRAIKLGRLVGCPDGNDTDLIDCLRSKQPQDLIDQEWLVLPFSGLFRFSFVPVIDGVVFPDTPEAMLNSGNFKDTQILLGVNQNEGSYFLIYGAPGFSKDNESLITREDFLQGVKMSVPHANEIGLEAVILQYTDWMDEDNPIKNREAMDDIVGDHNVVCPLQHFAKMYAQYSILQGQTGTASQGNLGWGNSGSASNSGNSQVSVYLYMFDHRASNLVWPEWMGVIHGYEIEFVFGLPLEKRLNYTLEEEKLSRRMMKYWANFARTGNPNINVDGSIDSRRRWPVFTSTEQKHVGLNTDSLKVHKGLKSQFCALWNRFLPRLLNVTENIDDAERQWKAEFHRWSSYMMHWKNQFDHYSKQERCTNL

On to `O=C(NCCc1c[nH]c2ccccc12)C1CCN(Cc2ccccc2)CC1`, for which the IC50 (usually the concentration that inhibits the measured activity by half) was 25.6 µM in data set [1], over 100 µM in data set [2] and 40.5 µM in data set [3]. Also, the solubility entry in data set [4] is on record as “Soluble”; in data set [5], “Insoluble”.

As to `COc1cc2c(cc1OC)-c1nc(NC(=O)C3CCN(Cc4ccccc4)CC3)sc1C2`, the values for the IC50 in data set [2] and in data set [3] were over 100 µM and 31.3 µM, respectively. Moreover, the solubility result is on record as “Soluble” in data set [4] and “Insoluble” in data set [5].

With `Cc1c(NC(=O)C2CCN(Cc3ccccc3)CC2)c(=O)n(-c2ccccc2)n1C`, the values for the IC50 in data set [1], in data set [2] and in data set [3] were 5.94 µM, over 100 µM and over 100 µM, respectively. Moreover, the solubility result is reported as “Soluble” in data set [4] and “Insoluble” in data set [5].

Take `O=C(Nc1nccs1)C1CCN(Cc2ccccc2)CC1`: the results for the IC50 in data set [1], in data set [2] and in data set [3] were 51.1 µM, over 100 µM and 76.6 µM, respectively. Also, the figures for the solubility entry in data set [4] and in data set [5] were “Soluble” and “Insoluble”, respectively.

On to `O=C(NC1CCCc2ccccc21)C1CCN(Cc2ccccc2)CC1` (stereo not given), for which the IC50 was over 100 µM in data set [1], over 100 µM in data set [2] and 99.3 µM in data set [3]. For the same compound, the solubility result in data set [4] was “Soluble”; in data set [5], “Insoluble”.

Turning to `O=C(NCCN1CCCCC1)C1CCN(Cc2ccccc2)CC1`, the figures for the IC50 in data set [1], in data set [2] and in data set [3] were 82.1 µM, over 100 µM and over 100 µM, respectively. Also, the values for the solubility entry in data set [4] and in data set [5] were “Soluble” and “Insoluble”, respectively.

Take `O=C(NCc1ccccn1)C1CCN(Cc2ccccc2)CC1`: the IC50 in data set [1] is 30.9 µM; in data set [2], over 100 µM; in data set [3] it was over 100 µM. Also, the solubility entry was “Soluble” in data set [4] and “Insoluble” in data set [5].

Take `O=C(NCCNc1cccc2ccccc12)C1CCN(Cc2ccccc2)CC1`: the IC50 in data set [1] was 14 µM; in data set [2], over 100 µM; in data set [3] it was 13.6 µM. In addition, the solubility result in data set [4] was “Soluble”; in data set [5] it was “Insoluble”.

`COc1cc(CCNC(=O)C2CCN(Cc3ccccc3)CC2)cc(OC)c1OC`: the IC50 in data set [1], in data set [2] and in data set [3] was over 100 µM each time. Moreover, the solubility result is recorded as “Soluble” in data set [4] and “Insoluble” in data set [5].

Regarding `O=C(NCCN1CCOCC1)C1CCN(Cc2ccccc2)CC1`, the IC50 in data set [1] is over 100 µM; in data set [2], over 100 µM; in data set [3] it was 73.4 µM. The solubility result in data set [4] is recorded as “Soluble”; in data set [5] it was “Insoluble”.

With `O=C(NCCc1c[nH]cn1)C1CCN(Cc2ccccc2)CC1`, the IC50 in data set [1], in data set [2] and in data set [3] was over 100 µM each time. Besides, the solubility entry in data set [4] was “Soluble”; in data set [5], “Insoluble”.

Regarding `O=C(NCc1ccncc1)C1CCN(Cc2ccccc2)CC1`, the IC50 is 58.2 µM in data set [1], over 100 µM in data set [2] and 3.37 µM in data set [3]. The solubility result in data set [4] is recorded as “Soluble”; in data set [5] it was “Insoluble”.

On to `O=C(NCc1cccnc1)C1CCN(Cc2ccccc2)CC1`, for which the IC50 in data set [1] is 58.9 µM; in data set [2] it was over 100 µM; in data set [3], over 100 µM. The solubility entry in data set [4] is reported as “Soluble”; in data set [5], “Insoluble”.

As to `O=C(NCc1ccco1)C1CCN(Cc2ccccc2)CC1`, the IC50 in data set [1], in data set [2] and in data set [3] was over 100 µM throughout. For the same compound, the solubility entry is recorded as “Soluble” in data set [4] and “Insoluble” in data set [5].

On to `COc1ccccc1CNC(=O)C1CCN(Cc2ccccc2)CC1`, for which the figures for the IC50 in data set [1], in data set [2] and in data set [3] were 44.4 µM, over 100 µM and 50.9 µM, respectively. The solubility result was “Soluble” in data set [4] and “Insoluble” in data set [5].

Compound `COc1cc2c(cc1OC)C(=O)C(CC1CCN(Cc3ccccc3)CC1)C2` (stereo not given) [DONEPEZIL] showed an IC50 in data set [3] of 95.1 µM.
